In article PMC12198407, “Preclinical and first-in-human of purinostat mesylate, a novel selective HDAC I/IIb inhibitor, in relapsed/refractory multiple myeloma and lymphoma” (Signal Transduction and Targeted Therapy, 2025):
Entries after “also recorded” stand apart in the source; their conditions may differ. Where two headings read alike, the source gives them in different places.

Key:
CYP3A4 = test: CYP induction, cryopreserved human liver cells; type: in vitro ADME; conditions: 0.0500, 0.500, 5.00 µM; three donors
[1] = Plasma level in wild-type mice; type: in vivo; conditions: single i.v. 5 mg/kg, listed as Purinostat Mesylate
Method: (§1) The mean residence times (MRT) were 6.00 ± 1.00 h, 24.8 ± 1.03 h, and 23.4 ± 3.59 h, respectively. […] However, in Ighmyc mice, the plasma drug concentration after the same duration was 7.11 ± 3.15 ng/mL. […] The pharmacokinetic characteristics support the notion that spaced dosing of the drug can still maintain favorable pharmacodynamic outcomes.

CYP2C9 = target: T1, CYP2C9 (Homo sapiens, UniProt P11712); test: CYP inhibition, human liver microsomes; type: in vitro ADME
T1 construct: human liver microsomal cytochrome P450 isoenzymes; from tissue; host or cells: human liver microsomes
T1 sequence (P11712 whole entry): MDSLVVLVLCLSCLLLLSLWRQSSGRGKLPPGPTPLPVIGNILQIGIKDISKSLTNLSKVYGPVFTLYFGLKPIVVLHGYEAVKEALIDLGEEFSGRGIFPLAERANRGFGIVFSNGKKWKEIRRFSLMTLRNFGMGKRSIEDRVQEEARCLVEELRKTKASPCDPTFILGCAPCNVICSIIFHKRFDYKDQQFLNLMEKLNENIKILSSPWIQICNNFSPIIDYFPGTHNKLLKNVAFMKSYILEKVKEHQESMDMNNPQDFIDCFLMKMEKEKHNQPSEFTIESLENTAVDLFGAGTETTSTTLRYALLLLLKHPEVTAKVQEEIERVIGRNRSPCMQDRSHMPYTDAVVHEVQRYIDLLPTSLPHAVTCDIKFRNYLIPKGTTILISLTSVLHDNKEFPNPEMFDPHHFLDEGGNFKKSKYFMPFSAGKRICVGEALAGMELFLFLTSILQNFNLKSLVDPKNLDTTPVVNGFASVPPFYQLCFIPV

[2] = system: class IIb HDAC substrate α-tubulin in SUDHL-6, Daudi, Raji, Ramos, RPMI-8226; test: Cellular acetylation of α-tubulin; type: cell-based, human
Text: The results of these cell experiments were consistent with the in vitro enzyme activity assay results.

MM1S xenograft = MM1S xenograft mouse model; type: in vivo, NOD-SCID mice; conditions: for median survival time: satellite group, death = tumor 1500 mm³
rabbit red blood cells = test: In vitro hemolytic test; conditions: 0.204 mg/mL
Method: This experiment included a negative control group (0.9% sodium chloride injection), a positive control group (sterile water for injection), a blank formulation group of injectable Purinostat Mesylate with five dosage levels (0.1, 0.2, 0.3, 0.4, and 0.5 mL/test tube at a concentration of 3.06 mg/mL, which is the same as the concentration of the excipient in the injectable Purinostat Mesylate group), and five dosage levels of injectable Purinostat Mesylate (0.1, 0.2, 0.3, 0.4, and 0.5 mL/test tube at a concentration of 0.204 mg/mL, the maximum intended clinical concentration). A 2% red blood cell suspension was mixed with 0.9% sodium chloride injection, sterile water for injection, the blank formulation of injectable Purinostat Mesylate, and injectable Purinostat Mesylate in the specified proportions, and then placed in a constant temperature incubator at 37±0.5°C. […] Each group was measured in parallel three times.

[3] = Pharmacokinetics and tissue distribution in Ighmyc mice; type: in vivo
Text: In B cell-related tumors, the mechanism of disease often involves the translocation of the MYC oncogene to the immunoglobulin promoter region, leading to its hyperactivation. The translocation of the MYC gene to the IGH enhancer (t(8;14) (q24;q32)) is a molecular hallmark of Burkitt lymphoma. The Ighmyc (Eμ-myc) mouse model successfully mimics this pathogenic mechanism by translocating the MYC oncogene to the immunoglobulin μ enhancer. […] We isolated bone marrow and enlarged spleen from diseased Ighmyc mice and transplanted them into normal C57 mice via tail vein injection to induce a primary B cell lymphoma model. This study aims to investigate the pharmacokinetic characteristics and tissue distribution of Purinostat Mesylate in plasma and target organs in the context of primary B cell lymphoma.
as §1

[4] = target: human ether-à-go-go-related gene (hERG) channel (Homo sapiens, UniProt Q12809); test: hERG inhibition; type: biochemical
Sequence of human ether-à-go-go-related gene (hERG) channel (Q12809 whole entry): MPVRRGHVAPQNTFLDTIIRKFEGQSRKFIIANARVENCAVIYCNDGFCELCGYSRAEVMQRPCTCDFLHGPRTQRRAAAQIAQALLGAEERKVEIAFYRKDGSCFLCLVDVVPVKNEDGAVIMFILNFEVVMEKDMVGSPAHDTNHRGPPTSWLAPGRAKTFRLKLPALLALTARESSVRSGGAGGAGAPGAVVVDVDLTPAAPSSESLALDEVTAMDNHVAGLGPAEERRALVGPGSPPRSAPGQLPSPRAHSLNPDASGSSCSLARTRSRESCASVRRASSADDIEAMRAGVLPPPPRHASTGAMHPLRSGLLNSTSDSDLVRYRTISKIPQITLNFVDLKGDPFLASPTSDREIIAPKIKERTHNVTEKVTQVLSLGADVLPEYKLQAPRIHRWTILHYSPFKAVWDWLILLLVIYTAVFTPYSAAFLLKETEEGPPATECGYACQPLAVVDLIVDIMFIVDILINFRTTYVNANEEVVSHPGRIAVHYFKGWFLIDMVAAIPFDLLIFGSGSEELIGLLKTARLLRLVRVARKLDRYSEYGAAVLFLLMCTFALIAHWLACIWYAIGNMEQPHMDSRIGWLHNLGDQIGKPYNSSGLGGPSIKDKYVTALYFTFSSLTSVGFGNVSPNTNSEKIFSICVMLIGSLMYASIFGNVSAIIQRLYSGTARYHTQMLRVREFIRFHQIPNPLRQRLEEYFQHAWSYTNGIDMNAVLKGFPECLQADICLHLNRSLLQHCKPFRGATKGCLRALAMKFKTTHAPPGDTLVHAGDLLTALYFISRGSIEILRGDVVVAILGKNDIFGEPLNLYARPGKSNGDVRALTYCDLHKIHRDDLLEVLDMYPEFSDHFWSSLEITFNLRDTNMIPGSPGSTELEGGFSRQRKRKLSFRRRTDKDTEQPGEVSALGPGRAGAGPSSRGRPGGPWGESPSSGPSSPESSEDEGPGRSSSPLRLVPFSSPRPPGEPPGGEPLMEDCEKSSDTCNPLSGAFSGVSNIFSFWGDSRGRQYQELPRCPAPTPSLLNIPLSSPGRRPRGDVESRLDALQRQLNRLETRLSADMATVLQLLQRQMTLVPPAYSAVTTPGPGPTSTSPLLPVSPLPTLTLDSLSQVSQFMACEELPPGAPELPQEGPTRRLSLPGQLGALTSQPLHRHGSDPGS

[5] = system: human Burkitt lymphoma Daudi; test: Daudi subcutaneous tumor model; type: in vivo, NOD/SCID mice; conditions: for average median survival time: satellite group
HDAC I/IIb = system: HDAC I/IIb; design: method as in PMID 27186676, PMID 31439580; conditions: range over isoforms; read-out: IC50 against HDAC I/IIb; cited from earlier work
solid tumor cells = test: Proliferation, MTT or Alamar Blue; type: cell-based; conditions: Homo sapiens
CYP2C8 = target: T2, CYP2C8 (Homo sapiens, UniProt P10632); test: CYP inhibition, human liver microsomes; type: in vitro ADME
T2 construct: human liver microsomal cytochrome P450 isoenzymes; from tissue; host or cells: human liver microsomes
T2 sequence (P10632 whole entry): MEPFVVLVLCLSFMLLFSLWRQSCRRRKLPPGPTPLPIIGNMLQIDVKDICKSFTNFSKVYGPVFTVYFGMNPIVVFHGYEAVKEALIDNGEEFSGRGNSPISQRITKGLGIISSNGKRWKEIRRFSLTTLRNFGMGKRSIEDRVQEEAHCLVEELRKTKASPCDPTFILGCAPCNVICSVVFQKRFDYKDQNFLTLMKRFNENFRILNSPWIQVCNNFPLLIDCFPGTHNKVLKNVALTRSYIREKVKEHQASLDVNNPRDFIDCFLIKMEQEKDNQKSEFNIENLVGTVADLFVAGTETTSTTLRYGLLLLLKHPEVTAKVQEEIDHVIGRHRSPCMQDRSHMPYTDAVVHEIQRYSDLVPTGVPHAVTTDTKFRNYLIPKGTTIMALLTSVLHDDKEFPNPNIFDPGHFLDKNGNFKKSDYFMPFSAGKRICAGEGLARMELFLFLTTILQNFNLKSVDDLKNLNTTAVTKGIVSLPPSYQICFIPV

r/r DLBCL PDX = r/r DLBCL PDX mouse model; type: in vivo, mice; conditions: PM 10 mg/kg; Pola-BR per Table S9
Method: All animal studies were performed in accordance with the guidelines approved by the Institutional Animal Care and Use Committee of Sichuan University, Chengdu, China. Six- to seven-week-old female NOD-SCID mice were purchased from Beijing Vital River Laboratory Animal Technology Co., Ltd. (China). Mice received subcutaneous inoculation with 0.5 × 10^7 MM1S or RPMI-8226 cells, to establish xenograft models. Heterotopic PDX models were generated as previously described.[54] When tumors reached 150–250 mm^3, mice were treated with various compounds. PM and panobinostat were administered intravenously three times a week at 5 mg/kg in combination therapy. […] Tumor volume (tumor volume (mm^3) = π/6 × length × width^2) and body weights were measured every two days. At the end, tumor tissues were weighed, and antitumor activity was evaluated by the tumor inhibition rate = (1 − tumor weight of treatment group/tumor weight of vehicle group) × 100%.

Text for in vivo: According to the "Guidelines for the Clinical Trial of Antineoplastic Drugs," for cytotoxic agents, the maximum recommended starting dose (MRSD) can be determined as one-tenth of the maximum tolerated dose (MTD) in rodent studies or one-sixth of the MTD in non-rodent species, expressed in mg/m². For some non-cytotoxic antineoplastic agents, due to their relatively lower toxicity, the starting dose for single administration in Phase I clinical trials can be calculated using one-fifth of the No Observed Adverse Effect Level (NOAEL) from non-rodent studies, or higher.
The Pharmacological Active Dose (PAD) based on mice is used to predict the minimum dose that may produce the expected pharmacological effect in humans.

**Q.** With CN(Cc1nc2c(N3CCOCC3)nc(-c3ccc(N)cc3)nc2n1C)c1ncc(C(=O)NO)cn1.CS(=O)(=O)O [PM, 2-(((2-(4-Aminophenyl)-9-methyl-6-(4-morpholinyl)-9H-purine-8-yl)methyl)methylamino)-N-hydroxy-5-pyrimidine-carboxamide Mesylate] as the compound, how does the “induction of CYP3A4” value (CYP3A4) read?
**A.** Its value is “did not act as an inducer”.

**Q.** And the “plasma drug concentration at 24 hours” value [1]?
**A.** The value was “no drug concentration was detected in the plasma at 24 hours; also recorded: no drug concentration was detectable in plasma after 24 hours; also recorded: undetectable”.

**Q.** And the NOAEL (in vivo; beagle, dog)?
**A.** Its NOAEL is < 0.3 mg/kg.

**Q.** What about the NOAEL (in vivo; rat) of the same compound?
**A.** The NOAEL was < 3 mg/kg.

**Q.** What about the IC50 (CYP2C9) of the same compound?
**A.** The IC50 was > 10000 nM.

**Q.** What about the “concentration inducing increased acetylation of α-tubulin” value [2] of the same compound?
**A.** Its value is 3 to 10 nM.

**Q.** And the “relative tumor growth rate T/C” value (MM1S xenograft; 2.5 mg/kg)?
**A.** The value was 49.9%.

**Q.** And the tumor inhibition rate (MM1S xenograft; 2.5 mg/kg i.v. three times a week)?
**A.** The tumor inhibition rate was 55.67%.

**Q.** And the “relative tumor growth rate T/C” value (MM1S xenograft; 5 mg/kg)?
**A.** The value was 32.0%.

**Q.** And the tumor inhibition rate (MM1S xenograft; 5 mg/kg i.v. three times a week)?
**A.** The tumor inhibition rate was 64.39%.

**Q.** And the “relative tumor growth rate T/C” value (MM1S xenograft; 10 mg/kg)?
**A.** Its value is 21.8%.

**Q.** What about the tumor inhibition rate (MM1S xenograft; 10 mg/kg i.v. three times a week) of the same compound?
**A.** Its tumor inhibition rate is 71.76%.

**Q.** What about the “relative tumor growth rate T/C” value (MM1S xenograft; 20 mg/kg) of the same compound?
**A.** Its value is 18.3%.

**Q.** And the tumor inhibition rate (MM1S xenograft; 20 mg/kg i.v. three times a week)?
**A.** Its tumor inhibition rate is 76.44%.

**Q.** What about the median survival time (MM1S xenograft; 5 mg/kg) of the same compound?
**A.** Its median survival time is 29.0 days.

**Q.** What about the median survival time (MM1S xenograft; 10 mg/kg) of the same compound?
**A.** The median survival time was 34.5 days.

**Q.** And the “in vitro hemolytic test outcome” value (rabbit red blood cells)?
**A.** Its value is “negative”.

**Q.** What about the “abnormal B220+/IgM- cell population in peripheral blood” value ([3]; 48 hours after single i.v. 5 mg/kg, untreated 48.9%) of the same compound?
**A.** Its value is “about 18.8%”.

**Q.** What about the AUC(0-t) ([3]; Ighmyc (Eμ-myc), mouse, lymph node, iv, single i.v. 5 mg/kg, read-out: lymph node AUC(0-72h)) of the same compound?
**A.** Its AUC(0-t) is 16100 ± 2040 ng·h/mL.

**Q.** And the Cmax ([3]; Ighmyc (Eμ-myc), mouse, lymph nodes, iv, single i.v. 5 mg/kg, read-out: Cmax in lymph nodes)?
**A.** The Cmax was 578 ± 153 ng/mL.

**Q.** What about the MRT ([3]; Ighmyc (Eμ-myc), mouse, lymph nodes, iv, single i.v. 5 mg/kg, read-out: MRT in lymph nodes) of the same compound?
**A.** Its MRT is 23.4 ± 3.59 h.

**Q.** And the half-life ([3]; Ighmyc (Eμ-myc), mouse, lymph nodes, iv, single i.v. 5 mg/kg, read-out: T1/2 in lymph nodes (converted))?
**A.** Its half-life is 21.9 ± 10.2 h.

**Q.** What about the concentration at 48 h ([3]; Ighmyc (Eμ-myc), mouse, lymph nodes, iv, single i.v. 5 mg/kg, read-out: concentration in lymph nodes at 48 hours) of the same compound?
**A.** Its concentration at 48 h is 178 ± 46 ng/mL.

**Q.** What about the Cmax ([3]; Ighmyc (Eμ-myc), mouse, plasma, iv, single i.v. 5 mg/kg, read-out: Cmax in plasma) of the same compound?
**A.** The Cmax was 304 ± 277 ng/mL.

**Q.** And the MRT ([3]; Ighmyc (Eμ-myc), mouse, plasma, iv, single i.v. 5 mg/kg, read-out: MRT in plasma)?
**A.** Its MRT is 6 ± 1 h.

**Q.** What about the half-life ([3]; Ighmyc (Eμ-myc), mouse, plasma, iv, single i.v. 5 mg/kg, read-out: T1/2 in plasma (converted)) of the same compound?
**A.** Its half-life is 12.2 ± 2.1 h.

**Q.** What about the AUC(0-t) ([3]; Ighmyc (Eμ-myc), mouse, plasma, iv, single i.v. 5 mg/kg, read-out: plasma AUC(0-48h)) of the same compound?
**A.** The AUC(0-t) was 875 ± 437 ng·h/mL.

**Q.** And the concentration at 24 h ([3]; Ighmyc (Eμ-myc), mouse, plasma, iv, single i.v. 5 mg/kg, read-out: plasma drug concentration at 24 hours)?
**A.** The concentration at 24 h was 7.11 ± 3.15 ng/mL.

**Q.** And the Cmax ([3]; Ighmyc (Eμ-myc), mouse, spleen, iv, single i.v. 5 mg/kg, read-out: Cmax in spleen)?
**A.** Its Cmax is 410 ± 69.9 ng/mL.

**Q.** What about the MRT ([3]; Ighmyc (Eμ-myc), mouse, spleen, iv, single i.v. 5 mg/kg, read-out: MRT in spleen) of the same compound?
**A.** Its MRT is 24.8 ± 1.03 h.

**Q.** What about the half-life ([3]; Ighmyc (Eμ-myc), mouse, spleen, iv, single i.v. 5 mg/kg, read-out: T1/2 in spleen (converted)) of the same compound?
**A.** The half-life was 20.8 ± 7.94 h.

**Q.** And the concentration at 48 h ([3]; Ighmyc (Eμ-myc), mouse, spleen, iv, single i.v. 5 mg/kg, read-out: concentration in spleen at 48 hours)?
**A.** The concentration at 48 h was 134 ± 18.5 ng/mL.

**Q.** And the AUC(0-t) ([3]; Ighmyc (Eμ-myc), mouse, spleen, iv, single i.v. 5 mg/kg, read-out: spleen AUC(0-72h))?
**A.** Its AUC(0-t) is 12500 ± 244 ng·h/mL.

**Q.** And the “plasma drug concentration at 24 hours” value ([3]; single i.v. 5 mg/kg, listed as Purinostat Mesylate, 5 mg/kg)?
**A.** The value was 7.11 ng/mL.

**Q.** What about the IC50 [4] of the same compound?
**A.** The IC50 was > 100000 nM.

**Q.** And the T/C ([5]; 2.5 mg/kg)?
**A.** Its T/C is 17.75±2.47%.

**Q.** What about the tumor inhibition rate ([5]; 2.5 mg/kg, mean of two batches) of the same compound?
**A.** Its tumor inhibition rate is 82.84 ± 2.18%.

**Q.** What about the T/C ([5]; 5 mg/kg) of the same compound?
**A.** The T/C was 10.40±2.97%.

**Q.** What about the tumor inhibition rate ([5]; 5 mg/kg) of the same compound?
**A.** The tumor inhibition rate was 87.86 ± 2.38%.

**Q.** What about the T/C ([5]; 10 mg/kg) of the same compound?
**A.** The T/C was 7.35±3.75%.

**Q.** And the tumor inhibition rate ([5]; 10 mg/kg)?
**A.** Its tumor inhibition rate is 90.86 ± 3.84%.

**Q.** What about the median survival time ([5]; 20 mg/kg, paused day 28, resumed day 35) of the same compound?
**A.** Its median survival time is 54.4 days.

**Q.** What about the “average median survival time” value ([5]; 5 mg/kg) of the same compound?
**A.** Its value is 54.5 ± 5.0 days.

**Q.** What about the “average median survival time” value ([5]; 10 mg/kg) of the same compound?
**A.** The value was 58.5 ± 2.1 days.

**Q.** And the IC50 (HDAC I/IIb)?
**A.** The IC50 was 0.81 to 11.5 nM.

**Q.** What about the IC50 (solid tumor cells; all lines) of the same compound?
**A.** Its IC50 is < 100 nM.

**Q.** What about the IC50 (solid tumor cells; most tumor cell lines) of the same compound?
**A.** Its IC50 is < 50 nM.

**Q.** What about the IC50 (CYP2C8) of the same compound?
**A.** The IC50 was > 10000 nM.

**Q.** What about the tumor inhibition rate (r/r DLBCL PDX) of the same compound?
**A.** The tumor inhibition rate was 77.14%.

**Q.** What about the PAD (Mouse) of the same compound?
**A.** Its PAD is 2.5 mg/kg.

**Q.** And the “MRSD from MTD, most sensitive species” value (beagle, dog)?
**A.** The value was 3.33 mg/m².

**Q.** And the “equivalent human dose of exposure at dog HNSTD” value (beagle, dog)?
**A.** Its value is 36.88 mg/m².
